Columns and labels:
[1] = test system: HIV-1 virus of the patient (recombinant virus); test: Phenoscript phenotyping, recombinant virus of the patient in the presence of drugs; type: cell-based
Excerpt: The principle of the phenotypical tests for resistance is based on the measurement in vitro of the growth of a virus in the patient in the presence of drugs.
Viral RNA derived from the plasma is extracted, then the regions coding for inverse transcriptase and/or protease are amplified using PCR in phenotypical tests. Amplicons are recombined in vitro in a defective vector to form a viral particle. This viral particle is placed in a culture in the presence of increasing concentrations of drugs. The results are expressed in a “fold change” ratio of IC 50 (or IC90) with respect to a control virus which corresponds to the concentration of the drug that inhibits 50% (or 90%) of the viral replication in comparison to the reference wild type virus. The resistance level is defined as a function of thresholds of sensitivity (cut off).
(§1) Tables 2 and 3 below show two examples of samples of plasma in patients 1 and 2, respectively, for which the amplicons generated by the method above have made it possible to implement the genotyping according to the Trugene and Viroseq techniques and phenotyping according to the Phenoscript technique.
The principle of the tests of phenotypical resistance is based on the measurement in vitro of the growth of a virus in the patient in the presence of drug(s)/active agent(s), compared to a reference virus (resistance index). The level of resistance is defined as a function of thresholds of sensitivity (cut off). A second score of 0 to 2 is attributed to each of the three levels of resistance determined by the interpretation. Table 12 summarizes the interpretations given by the main phenotypical tests, PhenoSense and Phenoscript, as a function of their thresholds of sensitivity and assigns a phenotypical score corresponding to the magnitude of resistance.

[2] = test system: HIV-1 virus of the patient (protease and inverse transcriptase genes); test: Trugene genotyping, interpretation of resistances from the amplicon of patient plasma; conditions: M184V, T215Y, L63P
Excerpt: (§2) The procedure to generate the first specific amplicon is as follows: • 1) Viral RNA contained in a biological sample is extracted. The biological sample may be derived from a sample from the patient. It may be a blood or serum sample, but may also come from a biological fluid or a biopsy or any other tissue preparation. The biological sample may also come from a viral culture. In a general manner, a biological sample corresponds to all types of samples containing one or several HIV-1 variants. The term “HIV-1 virus” in this Example is used to mean any viral strain belonging to the sub-types B and non-B. • 2) The RNA obtained in (1) is retrotranscribed and amplified with one of the pairs of specific primers in Table 1 below to obtain an amplicon characterized by: […]
as §1
The Trugene HIV-1 genotyping kit is used to determine the genotype of the virus of sub-types B and non-B. The RNA is extracted using plasma from patients, according to known techniques, the viral RNA is retrotranscribed and amplified using PCR with primers specific for the pol gene making possible amplification of a sequence of nucleic acids of 1300 pb comprising, for the protease, codons 1 to 99 and comprising, for the inverse transcriptase, codons 1 to 247. The product of RT-PCR thus obtained is used in each of the 16 sequencing reactions by using the principle of CLIP™ reaction, sequencing technique using labeled primers (dye primers). Four pairs of different primers are used for this sequencing method, two pairs for the sequencing of the protease and two other pairs for the sequencing of the inverse transcriptase. Each sequence reaction is initiated by a specific dye primer (CLIP™), then interrupted by the corresponding labeled nucleotide. All of the fragments synthesized are then separated on electrophoresis gel and analyzed by an automatic sequencer specifically indicating the fragments ending with each of the four labeled nucleotides. The sequences, once reconstituted, are compared to the sequence of a reference virus using an alignment software.
(§3) The measurement of genetic variability is carried out using a specific sequence of nucleic acids amplified according to aspects of the method, then analyzed according to known sequencing techniques (Trugene, ViroSeq). Mutations in the genes of the protease and of the inverse transcriptase identified by these tests are interpreted according to algorithms that are updated regularly. A first score of 0 to 2 is attributed to each of the three levels of resistance determined by the interpretation. Table 11 below summarizes the interpretations given by the Trugene and ViroSeq tests as a function of the mutations identified and of the anti-retroviruses (ARV) used and assigns a genotypical score corresponding to the magnitude of the resistance.

[3] = test system: HIV-1 virus of the patient (protease and inverse transcriptase genes); test: ViroSeq genotyping, evidence of resistance from the amplicon of patient plasma; conditions: M184V, T215Y, L63P
Excerpt: as §2, §1
The RNA is extracted using plasmas from patients according to a known extraction technique based on the affinity of RNA with respect to silica columns, the viral RNA is retrotranscribed and amplified using PCR with primers specific to the pol gene making possible amplification of a sequence of nucleic acids of 1800 pb comprising, for the protease, codons 1 to 99 and comprising, for the inverse transcriptase, codons 1 to 335. The DNA thus obtained is then sequenced with seven different primers according to the Big Dye™ Terminator technology, a sequencing technique using dye terminators. The sequence reaction is initiated by each specific non-labeled primer, then interrupted by each of the labeled nucleotides. All of the fragments synthesized are then separated on electrophoresis gel. The color of the fluorochrome will then be registered using an automatic sequencer (ABI Prism 377 DNA sequencer), specifically indicating the fragments ending with each of the four labeled nucleotides. The sequences, once reconstituted, are compared to the sequence of a reference virus using an alignment software.
as §3

[4] = Patient 1 plasma sample, mutations D67N, K70R, K219E, K103N, V108I, P225H
[5] = Patient 2 plasma sample, mutations M41L, L210W, M36L

`Cc1cccc(C)c1OCC(=O)N[C@@H](Cc1ccccc1)[C@@H](O)C[C@H](Cc1ccccc1)NC(=O)[C@H](C(C)C)N1CCCNC1=O` [LPV] was tested, and the “Phenoscript Contribution to the therapeutic response” value (“Phenoscript Contribution” below) ([1]; Patient 1 plasma sample) was “Probable”, the “Phenoscript Contribution” value ([1]; Patient 2 plasma sample) was “Probable” and the “Trugene Interpretation of resistances” value [2, 4] was “No resistance”. The “Trugene Interpretation of resistances” value [2, 5] was “No resistance”, the “Viroseq Evidence of resistance” value [3, 4] was “Zero” and the “Viroseq Evidence of resistance” value [3, 5] was “Zero”.
In the case of `CC(C)(C)NC(=O)[C@@H]1C[C@@H]2CCCC[C@@H]2CN1C[C@@H](O)[C@H](Cc1ccccc1)NC(=O)[C@H](CC(N)=O)NC(=O)c1ccc2ccccc2n1` [SQV], the “Phenoscript Contribution” value ([1]; Patient 1 plasma sample) was “Probable”, the “Phenoscript Contribution” value ([1]; Patient 2 plasma sample) was “Probable” and the “Trugene Interpretation of resistances” value [2, 4] was “No resistance”. For the same molecule, the “Trugene Interpretation of resistances” value [2, 5] was “No resistance”, the “Viroseq Evidence of resistance” value [3, 4] was “Zero” and the “Viroseq Evidence of resistance” value [3, 5] was “Zero”.
In the case of `Nc1ccn([C@@H]2CS[C@H](CO)O2)c(=O)n1` [3TC], the “Phenoscript Contribution” value ([1]; Patient 1 plasma sample) was “Improbable”, the “Phenoscript Contribution” value ([1]; Patient 2 plasma sample) was “Improbable” and the “Trugene Interpretation of resistances” value [2, 4] was “Resistance”. For the same molecule, the “Trugene Interpretation of resistances” value [2, 5] was “Resistance”, the “Viroseq Evidence of resistance” value [3, 4] was “High” and the “Viroseq Evidence of resistance” value [3, 5] was “High”.
In the case of `CC(C)c1nc(CN(C)C(=O)N[C@H](C(=O)N[C@@H](Cc2ccccc2)C[C@H](O)[C@H](Cc2ccccc2)NC(=O)OCc2cncs2)C(C)C)cs1` [RTV], the “Trugene Interpretation of resistances” value [2, 4] was “No resistance”, the “Trugene Interpretation of resistances” value [2, 5] was “No resistance” and the “Viroseq Evidence of resistance” value [3, 4] was “Zero”. The “Viroseq Evidence of resistance” value [3, 5] was “Zero”.
With `CC(C)(C)NC(=O)[C@@H]1CN(Cc2cccnc2)CCN1C[C@@H](O)C[C@@H](Cc1ccccc1)C(=O)N[C@H]1c2ccccc2C[C@H]1O` [IDV] the “Phenoscript Contribution” value ([1]; Patient 1 plasma sample) was “Probable”, the “Phenoscript Contribution” value ([1]; Patient 2 plasma sample) was “Probable” and the “Trugene Interpretation of resistances” value [2, 4] was “No resistance”. The “Trugene Interpretation of resistances” value [2, 5] was “No resistance”, the “Viroseq Evidence of resistance” value [3, 4] was “Zero” and the “Viroseq Evidence of resistance” value [3, 5] was “Zero”.
For `Nc1nc(NC2CC2)c2ncn([C@H]3C=C[C@@H](CO)C3)c2n1` [ABC], the “Phenoscript Contribution” value ([1]; Patient 1 plasma sample) was “Possible”, the “Phenoscript Contribution” value ([1]; Patient 2 plasma sample) was “Possible” and the “Trugene Interpretation of resistances” value [2, 4] was “No resistance”. For the same molecule, the “Trugene Interpretation of resistances” value [2, 5] was “Resistance”, the “Viroseq Evidence of resistance” value [3, 4] was “Possible” and the “Viroseq Evidence of resistance” value [3, 5] was “Possible”.
With `CC(C)OC(=O)OCOP(=O)(CO[C@H](C)Cn1cnc2c(N)ncnc21)OCOC(=O)OC(C)C.O=C(O)/C=C/C(=O)O` [TDF] the “Trugene Interpretation of resistances” value [2, 4] was “No resistance” and the “Trugene Interpretation of resistances” value [2, 5] was “Resistance”.
For `O=c1[nH]cnc2c1ncn2[C@H]1CC[C@@H](CO)O1` [ddI], the “Phenoscript Contribution” value ([1]; Patient 1 plasma sample) was “Probable”, the “Phenoscript Contribution” value ([1]; Patient 2 plasma sample) was “Possible” and the “Trugene Interpretation of resistances” value [2, 4] was “Resistance”. For the same molecule, the “Trugene Interpretation of resistances” value [2, 5] was “Resistance”, the “Viroseq Evidence of resistance” value [3, 4] was “Possible” and the “Viroseq Evidence of resistance” value [3, 5] was “Possible”.
For `Cc1cn([C@H]2C[C@H](N=[N+]=[N-])[C@@H](CO)O2)c(=O)[nH]c1=O` [AZT], the “Phenoscript Contribution” value ([1]; Patient 1 plasma sample) was “Improbable”, the “Phenoscript Contribution” value ([1]; Patient 2 plasma sample) was “Improbable” and the “Trugene Interpretation of resistances” value [2, 4] was “Resistance”. The “Trugene Interpretation of resistances” value [2, 5] was “Resistance”, the “Viroseq Evidence of resistance” value [3, 4] was “High” and the “Viroseq Evidence of resistance” value [3, 5] was “High”.
`CC(C)CN(C[C@@H](O)[C@H](Cc1ccccc1)NC(=O)O[C@H]1CCOC1)S(=O)(=O)c1ccc(N)cc1` [APV] was tested, and the “Phenoscript Contribution” value ([1]; Patient 1 plasma sample) was “Probable”, the “Phenoscript Contribution” value ([1]; Patient 2 plasma sample) was “Probable” and the “Trugene Interpretation of resistances” value [2, 4] was “No resistance”. The “Trugene Interpretation of resistances” value [2, 5] was “No resistance”, the “Viroseq Evidence of resistance” value [3, 4] was “Zero” and the “Viroseq Evidence of resistance” value [3, 5] was “Zero”.
`Nc1ccn([C@H]2CC[C@@H](CO)O2)c(=O)n1` [ddC] was tested, and the “Viroseq Evidence of resistance” value [3, 4] was “High” and the “Viroseq Evidence of resistance” value [3, 5] was “High”.
In the case of `O=C1Nc2ccc(Cl)cc2[C@@](C#CC2CC2)(C(F)(F)F)O1` [EFV], the “Phenoscript Contribution” value ([1]; Patient 1 plasma sample) was “Improbable”, the “Phenoscript Contribution” value ([1]; Patient 2 plasma sample) was “Probable” and the “Trugene Interpretation of resistances” value [2, 4] was “Resistance”. The “Trugene Interpretation of resistances” value [2, 5] was “No resistance”, the “Viroseq Evidence of resistance” value [3, 4] was “High” and the “Viroseq Evidence of resistance” value [3, 5] was “Zero”.
In the case of `Cc1cn([C@H]2C=C[C@@H](CO)O2)c(=O)[nH]c1=O` [d4T], the “Phenoscript Contribution” value ([1]; Patient 1 plasma sample) was “Probable”, the “Phenoscript Contribution” value ([1]; Patient 2 plasma sample) was “Probable” and the “Trugene Interpretation of resistances” value [2, 4] was “Resistance”. The “Trugene Interpretation of resistances” value [2, 5] was “Resistance”, the “Viroseq Evidence of resistance” value [3, 4] was “High” and the “Viroseq Evidence of resistance” value [3, 5] was “Possible”.
With `Cc1ccnc2c1NC(=O)c1cccnc1N2C1CC1` [NVP] the “Phenoscript Contribution” value ([1]; Patient 1 plasma sample) was “Improbable”, the “Phenoscript Contribution” value ([1]; Patient 2 plasma sample) was “Probable” and the “Trugene Interpretation of resistances” value [2, 4] was “Resistance”. For the same molecule, the “Trugene Interpretation of resistances” value [2, 5] was “No resistance”, the “Viroseq Evidence of resistance” value [3, 4] was “High” and the “Viroseq Evidence of resistance” value [3, 5] was “Zero”.
`CC(C)Nc1cccnc1N1CCN(C(=O)c2cc3cc(NS(C)(=O)=O)ccc3[nH]2)CC1` [DLV] was tested, and the “Trugene Interpretation of resistances” value [2, 4] was “Resistance”, the “Trugene Interpretation of resistances” value [2, 5] was “No resistance” and the “Viroseq Evidence of resistance” value [3, 4] was “High”. For the same molecule, the “Viroseq Evidence of resistance” value [3, 5] was “Zero”.
With `Cc1c(O)cccc1C(=O)N[C@@H](CSc1ccccc1)[C@H](O)CN1C[C@H]2CCCC[C@H]2C[C@H]1C(=O)NC(C)(C)C` [NFV] the “Phenoscript Contribution” value ([1]; Patient 1 plasma sample) was “Probable”, the “Phenoscript Contribution” value ([1]; Patient 2 plasma sample) was “Probable” and the “Trugene Interpretation of resistances” value [2, 4] was “No resistance”. For the same molecule, the “Trugene Interpretation of resistances” value [2, 5] was “No resistance”, the “Viroseq Evidence of resistance” value [3, 4] was “Zero” and the “Viroseq Evidence of resistance” value [3, 5] was “Possible”.

Source: US20060292553A1, “Method for study of the genetic and functional variability of HIV and kit for using it” (Bioalliance Pharma, a corporation of France, priority 2004, published 2006)
